Data reported in PubChem BioAssay AID330 (DTP/NCI, 2004).
“And” between values parts separate entries of the source, which are not always exact repeats. Equal values may be shown once. Inconclusive results and toxic doses are left out.

Test system: P388 leukemia ip, CD2F1 mice, survival T/C
Experiment: NCI In Vivo Anticancer Drug Screen. Data for tumor model P388 Leukemia (intraperitoneal) in CD2F1 (CDF1) mice
Details: endpoint: median survival time, higher = longer survival
Method in brief: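 Mice carrying the transplanted tumor received test compound or vehicle. Survival was recorded in each group, and the value is the treated-group measurement divided by that of the vehicle-treated control group.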

[1] = dose: 50.0 mg/kg/injection, schedule: Q01DX005 (ip), vehicle: saline with Tween-80
[2] = dose: 100.0 mg/kg/injection, schedule: Q01DX005 (ip), vehicle: saline with Tween-80
[3] = dose: 200.0 mg/kg/injection, schedule: Q01DX005 (ip), vehicle: saline with Tween-80
[4] = dose: 50.0 mg/kg/injection, schedule: Q04DX002 (ip), vehicle: saline with Tween-80
[5] = dose: 100.0 mg/kg/injection, schedule: Q04DX002 (ip), vehicle: saline with Tween-80
[6] = dose: 200.0 mg/kg/injection, schedule: Q04DX002 (ip), vehicle: saline with Tween-80
[7] = dose: 60.0 mg/kg/injection, schedule: Q01DX005 (ip), vehicle: saline with Tween-80
[8] = dose: 120.0 mg/kg/injection, schedule: Q01DX005 (ip), vehicle: saline with Tween-80
[9] = dose: 240.0 mg/kg/injection, schedule: Q01DX005 (ip), vehicle: saline with Tween-80
[10] = dose: 50.0 mg/kg/injection, schedule: Q01DX005 (ip), vehicle: saline
[11] = dose: 200.0 mg/kg/injection, schedule: Q01DX005 (ip), vehicle: saline
[12] = dose: 6.25 mg/kg/injection, schedule: Q01DX005 (ip), vehicle: saline with Tween-80
[13] = dose: 12.5 mg/kg/injection, schedule: Q01DX005 (ip), vehicle: saline with Tween-80
[14] = dose: 25.0 mg/kg/injection, schedule: Q01DX005 (ip), vehicle: saline with Tween-80

SMILES: CC(=O)OCc1nc2ncnc(N)c2[nH]1
- T/C (dose: 12.5 mg/kg/injection, schedule: Q01DX005 (ip), vehicle: distilled water + Tween-80): 99 % of control
- T/C (dose: 25.0 mg/kg/injection, schedule: Q01DX005 (ip), vehicle: distilled water + Tween-80): 103 % of control
- T/C (dose: 50.0 mg/kg/injection, schedule: Q01DX005 (ip), vehicle: distilled water + Tween-80): 108 % of control
- T/C (dose: 100.0 mg/kg/injection, schedule: Q01DX005 (ip), vehicle: distilled water + Tween-80): 97 % of control
- T/C (dose: 200.0 mg/kg/injection, schedule: Q01DX005 (ip), vehicle: distilled water + Tween-80): 97 % of control

SMILES: C=C1CN(C(=O)c2ccccc2)C(=S)S1
- T/C [1]: 108 % of control
- T/C [2]: 108 % of control
- T/C [3]: 103 % of control

SMILES: OC1CC2CCCCC2CC1c1ccccc1 (stereo not given)
- T/C [4]: 100 % of control and 92 % of control
- T/C [5]: 111 % of control and 92 % of control
- T/C [6]: 92 % of control and 97 % of control
- T/C (dose: 400.0 mg/kg/injection, schedule: Q04DX002 (ip), vehicle: saline with Tween-80): 116 % of control

SMILES: O=C1NNC(=O)c2ccccc2C(=O)S1
- T/C [7]: 102 % of control
- T/C [8]: 101 % of control
- T/C [9]: 97 % of control

SMILES: CC1(C)CC(NC(=O)CCl)CC(C)(C)N1O
- T/C (dose: 50.0 mg/kg/injection, schedule: Q01DX009 (ip), vehicle: saline): 93 % of control
- T/C (dose: 100.0 mg/kg/injection, schedule: Q01DX009 (ip), vehicle: saline): 91 % of control
- T/C (dose: 200.0 mg/kg/injection, schedule: Q01DX009 (ip), vehicle: saline): 102 % of control

SMILES: COc1cc(C(=O)C(CN(C)C)CN(C)C)cc(OC)c1OC
- T/C (dose: 12.5 mg/kg/injection, schedule: Q01DX005 (ip), vehicle: saline): 101 % of control
- T/C (dose: 25.0 mg/kg/injection, schedule: Q01DX005 (ip), vehicle: saline): 100 % of control
- T/C [10]: 107 % of control and 114 % of control

SMILES: CC(C)(C)OC(=O)NC(CCC(N)=O)C(=O)O (stereo not given)
- T/C [10]: 104 % of control
- T/C (dose: 100.0 mg/kg/injection, schedule: Q01DX005 (ip), vehicle: saline): 104 % of control
- T/C [11]: 103 % of control

SMILES: CC1=C(C(=O)Nc2ccccc2C)C(c2ccco2)C(C(=O)Nc2ccccc2C)=C(C)N1
- T/C [7]: 96 % of control
- T/C [8]: 94 % of control
- T/C [9]: 97 % of control

SMILES: CCOC(=O)NC1CCc2ccccc2C1 (stereo not given)
- T/C (dose: 100.0 mg/kg/injection, schedule: Q04DX003 (ip), vehicle: Klucel (hydroxypropylcellulose) (HPC)): 98 % of control
- T/C (dose: 200.0 mg/kg/injection, schedule: Q04DX003 (ip), vehicle: Klucel (hydroxypropylcellulose) (HPC)): 108 % of control
- T/C (dose: 400.0 mg/kg/injection, schedule: Q04DX003 (ip), vehicle: Klucel (hydroxypropylcellulose) (HPC)): 95 % of control

SMILES: O=C(O)c1ccc(N2N=C3C(=CC(=O)c4ccccc43)SCC2=O)cc1
- T/C (dose: 12.5 mg/kg/injection, schedule: Q01DX005 (ip), vehicle: saline + Tween-80 + alcohol): 97 % of control
- T/C (dose: 25.0 mg/kg/injection, schedule: Q01DX005 (ip), vehicle: saline + Tween-80 + alcohol): 112 % of control

SMILES: Cn1c(CC(=O)O)csc1=S
- T/C [1]: 93 % of control
- T/C [2]: 94 % of control
- T/C [3]: 89 % of control

SMILES: CNNCc1ccc(C(=O)NC(N)=O)cc1
- T/C (dose: 300.0 mg/kg/injection, schedule: Q01DX009 (ip), vehicle: saline): 170 % of control

SMILES: COc1ccc2c([O-])c3[n+](c(OC)c2c1OC)CCc1cc2c(cc1-3)OCO2
- T/C [4]: 94 % of control
- T/C [5]: 104 % of control
- T/C [6]: 103 % of control

SMILES: COc1cc2c(cc1OC)CN1CCCC1C2 (stereo not given)
- T/C [12]: 97 % of control
- T/C [13]: 108 % of control
- T/C [14]: 101 % of control

SMILES: COc1ccc(C2=C(Cl)C(=O)N(c3ccc(OC)cc3OC)C(=O)C2(Cl)Cl)cc1
- T/C (dose: 100.0 mg/kg/injection, schedule: Q04DX002 (ip), vehicle: Klucel (hydroxypropylcellulose) (HPC)): 98 % of control
- T/C (dose: 200.0 mg/kg/injection, schedule: Q04DX002 (ip), vehicle: Klucel (hydroxypropylcellulose) (HPC)): 101 % of control
- T/C (dose: 400.0 mg/kg/injection, schedule: Q04DX002 (ip), vehicle: Klucel (hydroxypropylcellulose) (HPC)): 117 % of control

SMILES: O=S(O)CCCCSSCC(O)CO (stereo not given)
- T/C (dose: 30.0 mg/kg/injection, schedule: Q01DX005 (ip), vehicle: saline): 101 % of control
- T/C [10]: 111 % of control
- T/C (dose: 60.0 mg/kg/injection, schedule: Q01DX005 (ip), vehicle: saline): 115 % of control
- T/C (dose: 120.0 mg/kg/injection, schedule: Q01DX005 (ip), vehicle: saline): 115 % of control
- T/C [11]: 111 % of control
- T/C (dose: 240.0 mg/kg/injection, schedule: Q01DX005 (ip), vehicle: saline): 117 % of control

SMILES: CC1CC2OC2/C=C\C=C\C(=O)Cc2c(Cl)c(O)cc(O)c2C(=O)O1 (stereo not given)
- T/C (dose: 6.25 mg/kg/injection, schedule: Q01DX009 (ip), vehicle: Klucel (hydroxypropylcellulose) (HPC)): 107 % of control
- T/C (dose: 12.5 mg/kg/injection, schedule: Q01DX009 (ip), vehicle: Klucel (hydroxypropylcellulose) (HPC)): 108 % of control
- T/C (dose: 25.0 mg/kg/injection, schedule: Q01DX009 (ip), vehicle: Klucel (hydroxypropylcellulose) (HPC)): 110 % of control
- T/C (dose: 50.0 mg/kg/injection, schedule: Q01DX009 (ip), vehicle: Klucel (hydroxypropylcellulose) (HPC)): 109 % of control

SMILES: O=C(O)CCC(CS)C(=O)O (stereo not given)
- T/C (dose: 0.5 mg/kg/injection, schedule: Q01DX005 (ip), vehicle: saline): 100 % of control
- T/C (dose: 1.0 mg/kg/injection, schedule: Q01DX005 (ip), vehicle: saline): 100 % of control
- T/C (dose: 2.0 mg/kg/injection, schedule: Q01DX005 (ip), vehicle: saline): 100 % of control
- T/C (dose: 4.0 mg/kg/injection, schedule: Q01DX005 (ip), vehicle: saline): 98 % of control
- T/C (dose: 8.0 mg/kg/injection, schedule: Q01DX005 (ip), vehicle: saline): 98 % of control
- T/C (dose: 16.0 mg/kg/injection, schedule: Q01DX005 (ip), vehicle: saline): 112 % of control
- T/C (dose: 32.0 mg/kg/injection, schedule: Q01DX005 (ip), vehicle: saline): 100 % of control
- T/C (dose: 64.0 mg/kg/injection, schedule: Q01DX005 (ip), vehicle: saline): 96 % of control
- T/C (dose: 128.0 mg/kg/injection, schedule: Q01DX005 (ip), vehicle: saline): 89 % of control

SMILES: CCCC(=O)Nc1cc2c3c(c1)CCCN3CCC2
- T/C (dose: 12.5 mg/kg/injection, schedule: Q01DX009 (ip), vehicle: saline with Tween-80): 100 % of control
- T/C (dose: 25.0 mg/kg/injection, schedule: Q01DX009 (ip), vehicle: saline with Tween-80): 95 % of control

SMILES: O=C1OC2C(O)COC2(N=Nc2ccc(Cl)cc2)/C1=N/Nc1ccccc1 (stereo not given)
- T/C [12]: 104 % of control
- T/C [13]: 93 % of control
- T/C [14]: 89 % of control
- T/C [3]: 90 % of control

SMILES: CN(Cc1cnc2nc(N)nc(N)c2n1)c1ccc(C(=O)NC(CCC(=O)OCc2cc3c(cc2Cl)OCO3)C(=O)OCc2cc3c(cc2Cl)OCO3)cc1 (stereo not given)
- T/C (dose: 0.94 mg/kg/injection, schedule: Q01DX005 (ip), vehicle: saline with Tween-80): 166 % of control
- T/C (dose: 1.87 mg/kg/injection, schedule: Q01DX005 (ip), vehicle: saline with Tween-80): 184 % of control and 186 % of control
- T/C (dose: 7.5 mg/kg/injection, schedule: Q01DX005 (ip), vehicle: saline with Tween-80): 99 % of control and 118 % of control

SMILES: O=C(N/C(=C\c1ccc2c(c1)OCO2)c1nc2ccccc2s1)c1ccccc1
- T/C [7]: 107 % of control
- T/C [8]: 121 % of control
- T/C [9]: 123 % of control

SMILES: CCCCOc1ccc(OCc2ccc(C)cc2)cc1
- T/C (dose: 50.0 mg/kg/injection, schedule: Q01DX009 (ip), vehicle: saline with Tween-80): 114 % of control
- T/C (dose: 100.0 mg/kg/injection, schedule: Q01DX009 (ip), vehicle: saline with Tween-80): 114 % of control
- T/C (dose: 200.0 mg/kg/injection, schedule: Q01DX009 (ip), vehicle: saline with Tween-80): 91 % of control

SMILES: O=C(Nc1ccc(C2=NCCCN2)cc1)c1ccc(C(=O)Nc2ccc(C3=NCCCN3)cc2)nc1
- T/C (dose: 2.5 mg/kg/injection, schedule: Q01DX009 (ip), vehicle: saline): 100 % of control
- T/C (dose: 5.0 mg/kg/injection, schedule: Q04DX003 (ip), vehicle: saline): 95 % of control
- T/C (dose: 10.0 mg/kg/injection, schedule: Q04DX003 (ip), vehicle: saline): 90 % of control

SMILES: CC1=C(C(N)=O)C(c2ccccc2Cl)NC(=S)N1 (stereo not given)
- T/C (dose: 60.0 mg/kg/injection, schedule: Q01DX005 (ip), vehicle: Klucel (hydroxypropylcellulose) (HPC)): 117 % of control
- T/C (dose: 120.0 mg/kg/injection, schedule: Q01DX005 (ip), vehicle: Klucel (hydroxypropylcellulose) (HPC)): 98 % of control
- T/C (dose: 240.0 mg/kg/injection, schedule: Q01DX005 (ip), vehicle: Klucel (hydroxypropylcellulose) (HPC)): 99 % of control
